Assay results taken from patent publication US20040068002A1, “4-aminobenzopyran derivatives” (priority 2001, published 2004).

What was measured:
[1] = tested on: ventricular effective refractory period; assay: Effects on the effective refractory period (ventricular), anesthetized beagles with vagal nerve stimulation; assay type: in vivo; details: 0.3 mg/kg intravenously, from 5 min after administration, after minus before administration
Description: (§1) Effects on the Effective Refractory Period
(§2) Beagles were anesthetized with pentobarbital sodium and, under artificially ventilated condition, thoracotomy was conducted along the median and the pericardium was cut open to expose the heart. ECG was recorded using bipolar electrodes attached to the surface of the right atrial free wall, right atrial auricle, and right ventricular free wall. The vagal nerves were stimulated using an electric stimulation device via Nichrome wires inserted into the bilateral vagal nerves in the neck. The conditions for electric stimulation to the vagal nerves were set such that the RR intervals on ECG were prolonged by about 100 msec compared with those before the stimulation was started.
(§3) Electric current twice as strong as the threshold was used for the electric stimulation to the heart, and premature stimulation S2 was applied after giving 10 serial S1 stimulations at the basic stimulation cyclelength. […]
(§4) For evaluation of drug effects, the atrial and ventricular effective refractory periods were determined before drug administration, then each compound was administrated intravenously at the dose of 0.3 mg/kg, and the atrial and ventricular effective refractory periods were determined from 5 min after the administration. […]

[2] = tested on: atrial effective refractory period; assay: Effects on the effective refractory period (atrial), anesthetized beagles with vagal nerve stimulation; assay type: in vivo; details: 0.3 mg/kg intravenously, from 5 min after administration, after minus before administration
Description: as §1, §2, §3, §4

Row | Compound | prolongation time in effective refractory period (msec) ventricle [1] [ms] | prolongation time in effective refractory period (msec) Atrium [2] [ms]
1 | CCCCCN[C@H]1c2cc(N)c([N+](=O)[O-])cc2OC(C)(C)[C@@H]1O (relative stereo) [Synthesis Example 9, Trans-6-amino-3,4-dihydro-2,2-dimethyl-7-nitro-4-n-pentylamino-2H-1-benzopyran-3-ol] | 3 | 27
2 | CCCCCN[C@H]1c2cc(NC(C)=O)c([N+](=O)[O-])cc2OC(C)(C)[C@@H]1O (relative stereo) [Synthesis Example 1, (3R*,4S*)-6-acetylamino-3,4-dihydro-2,2-dimethyl-7-nitro-4-n-pentylamino-2H-1-benzopyran-3-ol] | 5 | 40
